In the test the test system is AMPK. The experiment in a line: AMPK activation measurements in cultured cells (Western Blot of pThr172 AMPK alpha and pSer79 ACC). In kind it is cell-based, human. To be noted: for activation of AMPK (anti-phosphoThr172 AMPK alpha, Western Blot) / phosphorylation of ACC substrate (anti-phosphoSer79ACC, Western Blot): HEK293 cells treated for 1 hour; for endogenous levels of AMPKα pT172: HEK293 cells, increasing doses, phenformin 5 mM as activation control; for activation of the AMPK complex: at the indicated doses (figures), cultured HEK293 cells. As for the experimental part: AMPK activation measurements in cultured cells by means of compounds 7 and 16.
Cell line and treatments. The cell line that was used in the treatments with the different assayed reagents was HEK293T (human embryonic kidney cells). Cells were grown in DMEM (Dulbecco's Modified Eagle's Medium) with 25 mM of glucose supplemented with 10% of inactivated fetal bovine serum, 2 mM glutamine, 100 units/ml of penicillin and 100 μg/ml of streptomycin, in a humid atmosphere at 37° C. with 5% of CO2. Cells were grown on 60 mm (p. 60) plates to obtain 70-80% of confluence. Cells were washed in Krebs Ringer buffer (KRB: NaCI […], CaCl2 […], KH2PO4 0.5 mM, KCl 3 mM, NaHCO3 2.5 mM, MgSO40.5 mM, HEPES 10 mM pH 7.4, 95:5 O2/CO2) tempered at 37° C. and subsequently treated for 1 hour at 37° C. in a culture oven, adding the adequate quantities of 7 and 16 (5 mM stock in DMSO) dissolved in KRB/25 mM glucose to reach the final concentrations indicated in the figures. Phenformin 5 mM was used as an activation control.
Preparation of HEK293T cell extracts. After the corresponding treatments, the supernatant was removed and cells were quickly-frozen in liquid N2. The plates were processed one by one and kept in ice , firstly adding the cold lysis buffer. The composition of the buffer was as follows: Tris 10 mM pH 7.4, EDTA 15 mM pH 8.0, NaF 50 mM, Na4P2O7 15 mM, sacarose 0.6 M, 2-Mercaptoethanol 15 mM, a mixture of protease inhibitors without EDTA (Roche) and 1 mM PMSF. Cells were collected in a lysis buffer with the help of a scraper and were lysed, passing each sample through 24 G×⅝″ syringes four times. A small amount was reserved to measure the quantity of protein using the Bradford protein assay and loading buffer for electrophoresis was added to the rest and boiled for 5 min maintaining the samples at −20° C. until their use. The concentration of proteins was determined through the Bradford method using the Bio-Rad Bradford Protein Assay Reagent (BioRad).
Protein analysis by Western Blot. The protein extracts were analysed using SDS-PAGE in gels with 8% or 10% acrylamide and 1.5 mm thick. 30 µg of protein were loaded and transferred to a PVDF (Millipore) membrane for 1.5 hours at 100 V. Blockage was performed using 5% of skimmed milk in TBS-T for 1 hour at room temperature. Immunodetection was performed by incubating the primary antibody all night at 4° C. After three 10-minute washes at room temperature using TBS-T, they were incubated with their corresponding secondary antibody conjugated to HRP. After the three 10-minute washes at room temperature using TBS-T, the membranes were developed using ECL plus (Pierce) and processed using a FUJI LAS 3000 (Fujifilm) unit. The antibodies used were: anti-pAMPKαThr172, anti-AMPKβ1/β2, anti-ACC and anti-pACCser79 from the company Cell Signaling Technology (Danvers, Mass., USA) diluted 1:1000, and the HRP goat anti-rabbit secondary antibody from the company Santa Cruz Technology at a dilution of 1:5000 or 1:10000. The detection of bands with the anti-pAMPKαThr172 and anti-pACCser79 antibodies (AMPK substrate) with respect to their respective loading controls (anti-AMPKβ1/β2 and anti-ACC) was taken as an indicative of AMPK activation.
(In general: Immunoblotting shows a protein as a band on a membrane.)

The mark [1] stands for this setting: concentrations between 12.5 and 50 μM, FIG. 1.
[2] abbreviates: concentrations between 12.5 and 100 μM, FIG. 2.

For `O=C(O)c1c(-c2ccc(-c3ccccc3O)cc2)c2ccccc2n1Cc1ccccc1` [compound 7, 1-benzyl-3-(2′-hydroxy-[1,1′-biphenyl]-4-yl)-1H-indole-2-carboxylic acid], the “endogenous levels of AMPKα pT172” value is reported as “increase in endogenous levels of AMPKα pT172” and the “activation of the AMPK complex” value is “capable of inducing the activation of the AMPK complex”. Under setting [1], the “activation of AMPK (anti-phosphoThr172 AMPK alpha, Western Blot)” value is listed as “activates AMPK in a dose-dependent manner” and the “phosphorylation of ACC substrate (anti-phosphoSer79ACC, Western Blot)” value was “increase in phosphorylation”.
For the compound `O=C(O)c1[nH]c2ccccc2c1-c1ccc(-c2ccccc2O)cc1` [compound 16, 3-(2′-hydroxy-[1,1′-biphenyl]-4-yl)-1H-indole-2-carboxylic acid], the “endogenous levels of AMPKα pT172” value is given as “increase in endogenous levels of AMPKα pT172” and the “activation of the AMPK complex” value is on record as “capable of inducing the activation of the AMPK complex”. Further, under setting [2], the “activation of AMPK (anti-phosphoThr172 AMPK alpha, Western Blot)” value is “activates AMPK in a dose-dependent manner” and the “phosphorylation of ACC substrate (anti-phosphoSer79ACC, Western Blot)” value is on record as “increase in phosphorylation”.

Values taken from US20170283378A1, “INDOLE DERIVATIVES FOR THE PREVENTION AND/OR TREATMENT OF DIABETES AND ASSOCIATED METABOLIC DISORDERS” (Consejo Superior de Investigaciones Cientificas (CSIC), priority 2014, published 2017).
